# ChEMBL document CHEMBL5625248, “Identification of unique indolylcyanoethylenyl sulfonylanilines as novel structural scaffolds of potential antibacterial agents” (Eur J Med Chem, 2023)
# Experiments:
# Type in all cases: functional
# [1] = test system: Staphylococcus aureus; test: Antibacterial activity against Staphylococcus aureus ATCC 25923 assessed as inhibition of bacterial growth incubated for 18 hrs by two fold broth microdilution assay
# [2] = test system: Klebsiella pneumoniae; test: Antibacterial activity against Klebsiella pneumoniae assessed as inhibition of bacterial growth incubated for 18 hrs by two fold broth microdilution assay
# [3] = test system: Escherichia coli; test: Antibacterial activity against Escherichia coli ATCC 25922 assessed as inhibition of bacterial growth incubated for 18 hrs by two fold broth microdilution assay
# [4] = test system: Staphylococcus aureus; test: Antibacterial activity against methicilin-resistant Staphylococcus aureus N315 assessed as inhibition of bacterial growth incubated for 18 hrs by two fold broth microdilution assay
# [5] = test system: Acinetobacter baumannii; test: Antibacterial activity against Acinetobacter baumannii assessed as inhibition of bacterial growth incubated for 18 hrs by two fold broth microdilution assay
# [6] = test system: Staphylococcus aureus; test: Antibacterial activity against Staphylococcus aureus ATCC 29213 assessed as inhibition of bacterial growth incubated for 18 hrs by two fold broth microdilution assay
# [7] = test system: Staphylococcus aureus; test: Antibacterial activity against Staphylococcus aureus assessed as inhibition of bacterial growth incubated for 18 hrs by two fold broth microdilution assay
# [8] = test system: Pseudomonas aeruginosa; test: Antibacterial activity against Pseudomonas aeruginosa assessed as inhibition of bacterial growth incubated for 18 hrs by two fold broth microdilution assay
# [9] = test system: Enterococcus faecalis; test: Antibacterial activity against Enterococcus faecalis assessed as inhibition of bacterial growth incubated for 18 hrs by two fold broth microdilution assay
# [10] = test system: Pseudomonas aeruginosa; test: Antibacterial activity against Pseudomonas aeruginosa ATCC 27853 assessed as inhibition of bacterial growth incubated for 18 hrs by two fold broth microdilution assay
# [11] = test system: Escherichia coli; test: Antibacterial activity against Escherichia coli assessed as inhibition of bacterial growth incubated for 18 hrs by two fold broth microdilution assay
Structure (SMILES),MIC [1] [mg/L],MIC [2] [mg/L],MIC [3] [mg/L],MIC [4] [mg/L],MIC [5] [mg/L],MIC [6] [mg/L],MIC [7] [mg/L],MIC [8] [mg/L],MIC [9] [mg/L],MIC [10] [mg/L],MIC [11] [mg/L]
CC(=O)Nc1ccc(S(=O)(=O)/C(C#N)=C/c2cn(C(=O)OC(C)(C)C)c3ccccc23)cc1,128,128,128,32,64,2,128,128,128,128,128
CC(C)=CCn1cc(/C=C(\C#N)S(=O)(=O)c2ccc(N)cc2)c2ccccc21,16,8,8,32,0.5,128,64,2,128,8,8
N#C/C(=C\c1c[nH]c2ccc([N+](=O)[O-])cc12)S(=O)(=O)c1ccc(N)cc1,128,4,8,128,64,64,64,64,128,16,128
CC(=O)Nc1ccc(S(=O)(=O)/C(C#N)=C/c2cn(Cc3ccc([N+](=O)[O-])cc3)c3ccccc23)cc1,256,16,64,16,64,2,256,128,128,256,256
CC(=O)Nc1ccc(S(=O)(=O)/C(C#N)=C/c2cn(CC3CC3)c3ccccc23)cc1,64,64,32,32,16,64,256,32,64,64,16
N#C/C(=C\c1cn(Cc2ccc(Cl)cc2Cl)c2ccccc12)S(=O)(=O)c1ccc(N)cc1,32,4,64,256,16,64,256,64,128,32,256
N#C/C(=C\c1cn(Cc2ccccc2Cl)c2ccccc12)S(=O)(=O)c1ccc(N)cc1,1,1,64,256,16,2,1,16,16,2,32
N#C/C(=C\c1c[nH]c2ccccc12)S(=O)(=O)c1ccc(N)cc1,128,1,4,64,8,32,32,4,32,1,2
CCCCCCCCn1cc(/C=C(\C#N)S(=O)(=O)c2ccc(NC(C)=O)cc2)c2ccccc21,4,4,32,256,8,16,8,64,16,16,256
CC(=O)Nc1ccc(S(=O)(=O)/C(C#N)=C/c2cn(Cc3ccccc3F)c3ccccc23)cc1,4,256,64,256,16,4,128,64,8,16,128
N#C/C(=C\c1cn(CCN2CCOCC2)c2ccccc12)S(=O)(=O)c1ccc(N)cc1,32,128,0.5,16,64,64,32,64,256,64,16
CCCCCn1cc(/C=C(\C#N)S(=O)(=O)c2ccc(N)cc2)c2ccccc21,128,8,16,256,32,16,256,64,128,64,8
CCCCCCn1cc(/C=C(\C#N)S(=O)(=O)c2ccc(N)cc2)c2ccccc21,2,128,64,32,8,4,256,8,4,8,8
C#CCn1cc(/C=C(\C#N)S(=O)(=O)c2ccc(NC(C)=O)cc2)c2ccccc21,4,4,2,2,8,8,2,4,4,2,8
